Tests used:
Type in all cases: cell-based, human
[1] = tested on: NCI60 tumor cell line panel; assay: NCI60 one-dose screen (10 μM), mean growth; details: 48 h, one dose 10 μM, mean cell growth of 60 tumor cell lines; for activity at 10 µM: Homo sapiens
Protocol: S2.1 NCI Screening Assay Experimental details
NCI Screening Assay Experimental: Cancer cell growth assays (NCI60 screening) 5,6 One-dose study: Tested compounds were initially solubilised in DMSO, diluted into RPMI 1640 and 5% fetal bovine serum/L-glutamine, and added to 96-well plates containing cell lines previously cultured for 24 h. After 48 h incubation, the media were removed, and the cells were fixed and stained with sulforhodamine B to determine overall percent growth/ total protein content. Unbound dye was removed with five washes of 1% acetic acid, and the plates were allowed to air dry. The dye was then resolubilised in Tris buffer, and the colorimetric absorbance was measured (515 nm). Growth inhibition was measured relative to the response generated from proliferating cells cultured under identical conditions for 48 h. […]

NCI-H460 spheroids = assay: Cell Titer-Glo 3D spheroid viability assay; details: 48 h; 25 at 0.35 and 0.7 μM; doxorubicin 50 nM
Description: Figure 12 Effect of compound 25 on the viability of spheroids established from two counterpart pairs of sensitive and MDR cell lines, from NSCLC (NCI-H460 and NCI-H460/R) and colorectal cancer (DLD1 and DLD1-TxR), using MicroTissue 3D Petri dishes. […] (B) Effect of compound 25 on the viability of NCI-H460 spheroids analyzed by Cell Titer-Glo 3D viability assay. (C) Effect of compound 25 on the viability of NCI-H460/R spheroids analyzed with the Cell Titer-Glo 3D viability assay. Results are presented as the % of luciferase luminescence relative to the “blank” cells (medium). […] (E) Effect of compound 25 on the viability of DLD1 spheroids analyzed by Cell Titer-Glo 3D viability assay. (F) Effect of compound 25 on the viability of DLD1-TxR spheroids analyzed with the Cell Titer-Glo 3D viability assay. Data are expressed as mean ± SEM from 3 independent experiments. * p ≤ 0.05 and ** p ≤ 0.01, when comparing DMSO vs compound treatment.
Spheroid formation was conducted in 12-series agarose 3D Petri Dish micromolds (MicroTissues Technology, MicroTissues Inc., Sigma-Aldrich). The agarose micromolds were prepared using 1% agarose in a 0.9% NaCl solution and then placed in 12-well plates and equilibrated with RPMI supplemented with 10% FBS for at least 2 h before cell seeding. Cell suspensions corresponding to 500 cells per spheroid of the NSCLC cell lines (NCI-H460 and NCI-H460/R), and 1000 cells per spheroid of the colorectal cancer cell lines (DLD1 and DLD1-TxR) were seeded in the corresponding micromolds. The choice of cell seeding concentration was based on a previous optimization assay (data not shown), ensuring that at the end of the assay the spheroids would have a size of around 400 μm. A 20 min incubation period was used for cells to settle into the micromolds and additional medium was finally added to the wells. Spheroid formation was monitored with the Leica DMi1 microscope. […] At the end of the treatment, images from at least 8 different spheroids per condition were captured on the Leica Dmi1 microscope, and posteriorly analyzed with the automated open-source software AnaSP.[82] Spheroid parameters, such as equivalent diameter, circularity, and compactness, were calculated.
Spheroid viability was determined through the luminescence-based Cell Titer-Glo 3D cell viability assay (Promega). Spheroids grown on MicroTissues 3D Petri Dish micromolds were exposed to the treatments, as described in the previous section. Then, the spheroids were transferred into 96-well plates in 50 μL of RPMI medium. […] The plate was then incubated in the dark for 5 min with agitation and allowed to rest for 25 min before luminescence measurement. Luminescence was quantified using the microplate reader Synergy MX coupled with the GEN5 software. […]

NCI-H460 cells [2] = assay: BrdU incorporation assay (cell proliferation); details: 48 h; 25 at 0.35 and 0.7 μM; doxorubicin 50 nM
Protocol: To assess the impact of compound 25 on cell proliferation, the bromodeoxyuridine (BrdU) incorporation assay was performed.
Figure 7 Effect of compound 25 on the % of proliferating NCI-H460 cells, determined with the BrdU assay. […] (A) Percentage of BrdU-incorporating cells under different treatments. Results are the mean ± SEM from at least 3 independent experiments. * p ≤ 0.05, ** p ≤ 0.01, when comparing DMSO vs compound treatment.
At 4 h before the end of this treatment, cells were incubated with 1 μM of BrdU (Merck Life Science). After collection of cells, they were fixed with paraformaldehyde 4% (Merck Life Science) for 40 min at room temperature (RT). Then, cells were subjected to a cytospin (500 rpm for 5 min), and cellular DNA was denaturated using 2 M of HCl (Merck Life Science) for 20 min. Cells were incubated with a PBS solution containing 0.5% Tween (Promega, Madison, Wisconsin, USA) and 0.05% bovine serum albumin (BSA; Merck Life Science). The cells were further incubated with a primary monoclonal mouse anti-BrdU Clone Bu20a antibody (1:10; Dako, Glostrup, Denmark) for 1 h, followed by incubation with a polyclonal rabbit antimouse immunoglobulins/FITC secondary antibody (1:100; Dako) for 30 min at RT. […] The cells were counted using the ImageJ 2.1.0 software.

NCI-H460 cells [3] = assay: Cell cycle profile, PI staining flow cytometry; details: 48 h; for cell cycle profile: 25 at 0.35 and 0.7 μM, doxorubicin 50 nM
Protocol: The effect of 25 on the cell cycle profile of NCI-H460 cells was assessed.
Figure 8 Effect of compound 25 on the cell cycle profile of NCI-H460 cells, analyzed by flow cytometry (PI staining). […] (A) Frequency (%) of cell cycle phases for each condition. (B) Representative cell cycle histograms. Results are the mean ± SEM from at least 3 independent experiments. * p ≤ 0.05, when comparing DMSO vs compound treatment.
Collected cells were then fixed in ice-cold 70% ethanol (Fisher Scientific) overnight. Cells were then centrifuged again and resuspended in 5 μg/mL of PI (Merck Life Science) and 0.1 mg/mL RNase A (Invitrogen) in PBS, and kept in the dark for at least 30 min. Cellular DNA content was analyzed using the BD Accuri C6 Flow cytometer. At least 10 000 events per sample were acquired. FlowJo 7.6.5 software (Tree Star, Inc., Ashland, Oregon, USA) was used to determine the % of cells in the different phases of the cell cycle.

| Structure (SMILES) | activity at 10 µM [1] | mean growth (%, 10 μM) [1] | viability of NCI-H460 spheroids (NCI-H460 spheroids) | percentage of proliferating (BrdU-incorporating) cells (NCI-H460 cells [2]) | cells in sub-G1 phase (NCI-H460 cells [3]; 0.35 and 0.7 μM) | cell cycle profile (NCI-H460 cells [3]) |
| --- | --- | --- | --- | --- | --- | --- |
| COC(=O)c1c2c(c(C)[n+]([O-])c1C)C(=O)C(NCc1ccc(F)cc1)=CC2=O [Compound 4] | 18% |  |  |  |  |  |
| COC(=O)c1c2c(c(C)[n+]([O-])c1C)C(=O)C=C(NCc1ccc(F)cc1)C2=O [Compound 5] | -37% | -37% |  |  |  |  |
| COC(=O)c1c2c(c(C)[n+]([O-])c1C)C(=O)C(NCc1ccc(O)cc1)=CC2=O [Compound 20] | -21% | -21% |  |  |  |  |
| COC(=O)c1c2c(c[n+]([O-])c1C)C(=O)C=CC2=O [Compound 23] | 44.5% |  |  |  |  |  |
| COC(=O)c1c2c(c[n+]([O-])c1C)C(=O)C(NCc1ccccc1)=CC2=O [Compound 24] | -35.1% | -35.1% |  |  |  |  |
| COC(=O)c1c2c(c[n+]([O-])c1C)C(=O)C=C(NCc1ccccc1)C2=O [Compound 25] |  |  | significant decrease in the viability of the spheroids | significantly reduced the percentage of NCI-H460 proliferating cells | slight increase in the percentage of cells in the sub-G1 phase, although not statistically significant | increase in the G1 phase and decrease in the S phase |
| COc1cccc2c1C(=O)c1c(O)c3c(c(O)c1C2=O)C[C@@](O)(C(=O)CO)C[C@@H]3O[C@H]1C[C@H](N)[C@H](O)[C@H](C)O1 [doxorubicin, reference compound] |  |  | did not significantly affect the viability of the spheroids | significantly reduced the percentage of NCI-H460 proliferating cells |  | major alterations in the cell cycle profile |

From PMC11345829, “Discovery of Potent Isoquinolinequinone N-Oxides to Overcome Cancer Multidrug Resistance” (Journal of Medicinal Chemistry, 2024)
